Laboratory results reported in patent publication US20240350491A1, “METHODS AND COMPOSITIONS FOR IMMUNE CONTROL THROUGH DICKKOPF-1” (Baylor College of Medicine, priority 2021, published 2024).

Legend:
Human platelets = test: Dkk-1 release from human platelets stimulated overnight at 4° C. or 37° C.; type: cell-based; conditions: overnight at both 4° C. and 37° C.; versus unstimulated platelets
Procedure: To investigate agents driving Dkk-1 release by platelets, human platelets were stimulated with lipopolysaccharide (LPS), thrombin, prothrombin (ProThrom), proteinase of Aspergillus melleus (PAM), or candidalysin (C. Lysin) overnight at 4° C. (FIG. 13A) or 37° C. (FIG. 13B). Unstimulated human platelets served as a control (platelets). Following stimulation, Dkk-1 concentration in the supernatant was quantified.

Dkk-1 [1] = biological target: T1, Dkk-1 (Mus musculus, UniProt O54908); test: C. albicans-induced allergic airway disease in mice given Dkk-1 inhibitor intraperitoneally; type: in vivo, C57BL/6 mice
T1 construct: endogenous in cells; host or cells: C57BL/6 mice (whole animal; Dkk-1 released from platelets into plasma)
T1 sequence (O54908 32-272): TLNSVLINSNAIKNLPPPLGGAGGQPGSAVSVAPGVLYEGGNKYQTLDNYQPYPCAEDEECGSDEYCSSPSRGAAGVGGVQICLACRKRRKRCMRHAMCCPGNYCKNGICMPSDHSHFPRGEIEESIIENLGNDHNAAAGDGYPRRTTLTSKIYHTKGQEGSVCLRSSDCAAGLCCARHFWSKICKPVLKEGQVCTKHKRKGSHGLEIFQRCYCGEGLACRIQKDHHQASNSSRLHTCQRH
Procedure: The relevance of Dkk-1 to allergic airway disease induced by airway mycosis is unknown. Mice challenged with C. albicans were administered a Dkk-1 inhibitor (WAY 262611) previously shown to block this peptide in vivo (Chae et al., 2016b) (FIG. 2G).
(§1) C57BL/6 mice were administered 1×10^5 viable cells of C. albicans intranasally every other day for 8 challenges as shown in FIG. 1 (Porter et al., 2011a). Alternatively, C57BL/6 mice were given 4, 8, and 16 μmol candidalysin or 16 μmol of scrambled peptide control in PBS every other day for 8 challenges as shown in FIG. 8. Dkk-1 inhibitor (Chae et al., 2016a) (WAY262611, cat: 317700, Millipore Sigma, Burlington, MA. Dose: 10 or 20 μg/kg) and recombinant mouse Dkk-1 (5897-DK-010, R&D systems, Minneapolis, MN. Dose: 5 μg/kg) were given intraperitoneally at the same time and fungal challenge. Mice were analyzed 24 h after the final challenge for allergic airway disease endpoints.
(§2) Bronchial constriction in response to increasing dose of acetylcholine (Ach) injected intravenously, bronchoalveolar lavage fluid (BALF) cell differential counting, Dkk-1 quantitation from plasma, ELISA analysis of whole lung, flow cytometry analysis of Th cells and lung histopathology were assessed in response to C. albicans challenge as previously described (Porter et al., 2011a). Briefly, mice were anesthetized with etomidate and intravenously injected with acetylcholine via tail vein to assess AHR as quantified by measuring respiratory system resistance (RRS). Total BALF cells were collected by lavaging whole lung, total cells were enumerated and differential cell counting was performed on modified Giemsa-stained cytospin preparations. Plasma was harvested by retro-orbital bleeding and anti-coagulated by 10% 0.5M EDTA (Thermofisher scientific, Waltham MA). Lungs were harvested and processed as follows. Lungs were cut into small pieces and incubated in digestion buffer (2 mg/ml collagenase (#LS004177, Worthington), 0.04 mg/ml DNAse (#10104159001, Sigma) 1, 20% FBS in HBSS) for 1 h at 37° C. after which they were deaggregated by pressing through a […] nylon mesh and centrifuged at 400×g for 5 minutes at 4° C. Supernatants were discarded, and 1.5 mL of ACK (Thermofisher scientific, Waltham MA) was added and incubated for 3 min at room temperature for erythrocyte lysis. ACK was then neutralized with 7.5 mL of complete RPMI-1640 (Corning, NY), with 10% FBS and 1% Pen Strep, Gibco, Waltham MA). The resulting leukocyte preparations were centrifuged and prepared for flow cytometry analysis or ELISA.
Cell culture supernatants were analyzed for cytokines by standard ELISA after comparison to recombinant standard. IL-4 (Clone 11B11 and 554390 BD Biosciences, San Jose, CA), IL-5, IL-13 (DY405, DY413, R&D systems, Minneapolis, MN), IL-17 (BMS2017, Thermofisher scientific, Waltham MA), IFN-7 (555142, BD Biosciences, San Jose, CA), IL-1, IL-6, TNF (ab210895, ab213749 and ab212073, Abcam, Cambridge MA) were used as antibodies pairs and capture signals were amplified using Streptavidin-horseradish peroxidase conjugate (51-9002813, BD Biosciences, San Jose, CA). The plate was further developed using TMB substrate solution (N301, Thermofisher scientific, Waltham MA) and detected at the absorbance wavelength of 450 nm.
Total lung cells isolated above were stained with Live/Dead Fix Blue (L34961, Thermofisher scientific, Waltham MA), CD45, CD3, CD4 (103122, 100222, 100412, Biolegend, San Diego, CA). Cells were separated into 3 groups, then permeabilized and fixed using Transcription Factor Buffer Set (562574, BD Biosciences, San Jose, CA), and stained individually for T-bet, GATA3 or RORγt (561265, 560074, 562607, BD Biosciences, San Jose, CA). For megakaryocyte staining, total lung cells were stained with Live/Dead Fix Blue and CD41, CXCR4 (133927, 146507, Biolegend, San Diego, CA), Dkk-1 (BAM1765, R&D systems, Minneapolis, MN) and PE-streptavidin (405203, Biolegend, San Diego, CA). […]

Dkk-1 [2] = biological target: T1, Dkk-1; test: Fungal experimental asthma due to Aspergillus niger, Dkk-1 antagonist IN or IP; type: in vivo, C57BL/6 mice
Procedure: C57BL/6 mice (4-6 weeks old) were challenged every second day with 400,000 viable conidia of AN while at the same time receiving a Dkk-1 antagonist (WAY262611) intranasally (IN) or intraperitoneally (IP) for 14 days. Airway hyperresponsiveness as assessed by enhanced increases in respiratory system resistance in response to increasing doses of acetylcholine chloride injected intravenously were determined as compared to PBS control mice (blue line). […] Thus, regardless of the fungus used, either Candida albicans or A. niger as shown herein, Dkk-1 can induce AHR. Statistics: IP versus IN or AN lines: P<0.05.

C57BL/6 mice [3] = test: Steroid-resistant AAD models (A. niger ± LPS), fluticasone propionate; type: in vivo; conditions: A. niger conidia ±30 ng LPS; daily treatment
Procedure: As shown in the severe eosinophilic and neutrophilic steroid-resistant AAD models of FIGS. 14A-14B, mice challenged with Aspergillus niger (AN) develop an asthma phenotype, here showing airway hyperresponsiveness (AHR), that is steroid (fluticasone propionate; FP, a commonly used steroid in asthma) resistant. Illustrated in FIG. 14A is an experimental timeline for assessing the effect of daily FP or vehicle (liposome: dilauroylphosphatidylcholine: DLPC) treatment on AHR. AHR was measured as a function of respiratory system resistance (RRS(cmH2O·s·ml^−1)) in C57BL/6 mice challenged intranasally (q.o.d.) with 4×10^5 A. niger (AN) conidia ±30 ng lipopolysaccharide (LPS) (FIG. 14B).

C57BL/6 mice [4] = test: Recombinant mouse Dkk-1 i.p. in ece1Δ/Δ C. albicans-challenged mice; type: in vivo
Procedure: To confirm, synthetic mouse Dkk-1 was administered to mice challenged with ece1Δ/Δ C. albicans (FIG. 3A). […] Dkk-1 alone had no effect on any index of allergic airway disease when administered through the intraperitoneal route (data not shown). Thus, in some aspects, Dkk-1 may be an important mediator of lung Th2 cell responses (Chae et al., 2016b), and may be equally important for the generation of Th17 cell responses in the context of airway mycosis. These findings further confirm that Dkk-1 is essential for the control of C. albicans growth in the lung.
as §1, §2

[5] = ece1Δ/Δ C. albicans-challenged mice

## thrombin
Human platelets
  Dkk-1 release by platelets: significantly increased

## NCC1CCN(c2nccc(-c3ccc4ccccc4c3)n2)CC1 [WAY 262611]
Dkk-1 [1]; C. albicans-challenged mice
  lung fungal burdens: markedly elevated
Dkk-1 [1]; C. albicans-challenged mice, 10 or 20 μg/kg i.p.
  BALF eosinophilia: most notably reducing
Dkk-1 [1]; C. albicans-challenged mice, 10 or 20 μg/kg i.p., dose-dependent
  BALF inflammatory cell recruitment: progressively reduced
Dkk-1 [1]; C. albicans-challenged mice, ELISA
  secretion of type 2 cytokines (IL-4, IL-5, IL-13) from whole lung: suppression
Dkk-1 [1]; C. albicans-challenged mice, inhibitor 10 or 20 μg/kg i.p., dose-dependent, 24 h after final challenge
  airway hyper-responsiveness: progressively reduced
Dkk-1 [1]; C. albicans-challenged mice, lung, ELISA
  secretion of IL-1β, IL-6 and TNF: not significantly affected
Dkk-1 [1]; C. albicans-challenged mice, whole lung, ELISA
  secretion of IL-17: inhibited
Dkk-1 [1]; flow cytometry, correlated with inhibitor dose
  recruitment to whole lung of GATA3+ Th2 and RORγt+ Th17 cells: decreased recruitment
Dkk-1 [2]; FIG. 16 legend, route not stated
  airway hyperresponsiveness (AHR) in fungal experimental asthma due to Aspergillus niger: abrogates
Dkk-1 [2]; IP route (systemic), 14 days, P<0.05 versus IN or AN
  AHR induced by AN: abrogates

## CCC(=O)O[C@]1(C(=O)SCF)[C@H](C)C[C@H]2[C@@H]3C[C@H](F)C4=CC(=O)C=C[C@]4(C)[C@@]3(F)[C@@H](O)C[C@@]21C [FP, fluticasone propionate]
C57BL/6 mice [3]
  airway hyperresponsiveness: exacerbate

B1: Dkk-1: recombinant mouse Dkk-1 (5897-DK-010, R&D systems), Wnt pathway antagonist peptide (protein, UniProt O54908 32-272, looked up)
Dickkopf-related protein 1: TLNSVLINSNAIKNLPPPLGGAGGQPGSAVSVAPGVLYEGGNKYQTLDNYQPYPCAEDEECGSDEYCSSPSRGAAGVGGVQICLACRKRRKRCMRHAMCCPGNYCKNGICMPSDHSHFPRGEIEESIIENLGNDHNAAAGDGYPRRTTLTSKIYHTKGQEGSVCLRSSDCAAGLCCARHFWSKICKPVLKEGQVCTKHKRKGSHGLEIFQRCYCGEGLACRIQKDHHQASNSSRLHTCQRH
C57BL/6 mice [4]; Dkk-1 alone, intraperitoneal route, data not shown
  any index of allergic airway disease: no effect
C57BL/6 mice [4]; [5]
  fungal lung burdens: significantly reduced
  recruitment of inflammatory cells, especially eosinophils, to the airways: markedly enhanced
  recruitment to lung of GATA3+ Th2 and RORγt+ Th17 cells: markedly increase
  secretion of innate pro-inflammatory cytokines: did not influence
  secretion of lung Th2 cytokines, especially IL-4, but also IL-17: markedly enhanced
C57BL/6 mice [4]; ece1Δ/Δ C. albicans-challenged mice, 5 μg/kg i.p.
  airway hyper-responsiveness: significantly enhanced
